{"source": "paper PMC11680164", "about": "(Viruses, 2024)", "system": "SARS-CoV-2 P.1 lineage (gamma variant)", "design": "species or system K18-hACE2 mice", "conditions": "in vivo", "note": "“Also recorded” adds a separate entry of the source.", "data": [{"smiles": "COC(=O)N[C@H](C(=O)N1CCC[C@H]1c1nc(-c2ccc(-c3ccc(-c4c[nH]c([C@@H]5CCCN5C(=O)[C@@H](NC(=O)OC)C(C)C)n4)cc3)cc2)c[nH]1)C(C)C", "note": "[daclatasvir]", "values": [{"measurement": "mouse survival", "result": "increased mouse survival; also recorded: did not significantly affect"}, {"measurement": "LDH levels in bronchoalveolar lavage (BAL) fluid (cell death, lung necrosis)", "setting": "mouse", "result": "decreased levels"}, {"measurement": "SARS-CoV-2-induced increase in IL-6", "setting": "mouse", "result": "prevented"}, {"measurement": "SARS-CoV-2-induced increase in KC", "setting": "mouse", "result": "prevented"}, {"measurement": "SARS-CoV-2-induced increase in TNF-α", "setting": "mouse", "result": "prevented"}, {"measurement": "cellular infiltration in BAL fluid", "setting": "mouse", "result": "reduced cellular infiltration"}, {"measurement": "double-stranded RNA (dsRNA) levels in the lungs", "setting": "mouse", "result": "lower levels"}, {"measurement": "loss of body weight", "setting": "mouse", "result": "reduced"}, {"measurement": "lung parenchyma affected by alveolar collapse", "setting": "mouse", "result": "~10", "unit": "%"}, {"measurement": "reduction of SARS-CoV-2 RNA levels in the lungs", "setting": "mouse", "result": "up to 3 log10"}, {"measurement": "reduction of SARS-CoV-2 titers in the lungs", "setting": "mouse", "result": "up to 3 log10"}, {"measurement": "virus-induced score of clinical severity", "setting": "mouse", "result": "reduced"}]}]}
